# Measured values from PMC12446476 (Nature Communications, 2025).
# Read-outs that look alike come from different tables or passages of the source.
# Test system: non-gonococcal Neisseria
# Experiment: MIC determination for non-gonococcal Neisseria, agar dilution
# Type: cell-based, Neisseria species
# Conditions: read-out: Minimum inhibitory concentration
# Excerpt: The 2024 WHO N. gonorrhoeae reference strains were used for quality control. Only whole MIC doubling dilutions are reported. Clinical breakpoints or the epidemiological cutoff (ECOFF, to indicate azithromycin resistance) from EUCAST (v14.0, https://www.eucast.org/clinical_breakpoints) were used to classify isolates as antimicrobial susceptible or resistant. […] Two times the standard inoculum defined by CLSI was used to establish consistent growth in untreated control samples for some strains. In vitro time-kill assays were performed according to CLSI guidelines[65] using Columbia Broth (BD Difco) supplemented with 1% IsoVitaleX Enrichment (BD). Viable bacterial counts were generated by plating 10-fold serially diluted samples on GC agar plates containing 1% IsoVitaleX Enrichment (BD).
smiles,measurement,setting,value
Cc1c(CN(C)C(=O)/C=C/c2cnc3c(c2)N[C@H](C)[C@H](O)C(=O)N3)oc2ccccc12 [Debio 1453],MIC,"Neisseria lactamica 1, Replicate 3",0.032 µg/mL
same,MIC,"Neisseria lactamica 2, Consensus",0.064 µg/mL
same,MIC,"Neisseria lactamica 2, Replicate 1",0.064 µg/mL
same,MIC,"Neisseria lactamica 2, Replicate 2",0.064 µg/mL
same,MIC,"Neisseria lactamica 2, Replicate 3",0.064 µg/mL
same,MIC,"Neisseria lactamica 3, Consensus",0.016 µg/mL
same,MIC,"Neisseria lactamica 3, Replicate 1",0.016 µg/mL
same,MIC,"Neisseria lactamica 3, Replicate 2",0.016 µg/mL
same,MIC,"Neisseria lactamica 3, Replicate 3",0.016 µg/mL
same,MIC,"Neisseria lactamica 4, Consensus",0.064 µg/mL
same,MIC,"Neisseria lactamica 4, Replicate 1",0.064 µg/mL
same,MIC,"Neisseria lactamica 4, Replicate 2",0.064 µg/mL
same,MIC,"Neisseria lactamica 4, Replicate 3",0.064 µg/mL
same,MIC,"Neisseria lactamica 5, Consensus",0.016 µg/mL
same,MIC,"Neisseria lactamica 5, Replicate 1",0.032 µg/mL
same,MIC,"Neisseria lactamica 5, Replicate 2",0.016 µg/mL
same,MIC,"Neisseria lactamica 5, Replicate 3",0.016 µg/mL
same,MIC,"Neisseria lactamica 6, Consensus",0.032 µg/mL
same,MIC,"Neisseria lactamica 6, Replicate 1",0.032 µg/mL
same,MIC,"Neisseria lactamica 6, Replicate 2",0.032 µg/mL
same,MIC,"Neisseria lactamica 6, Replicate 3",0.032 µg/mL
same,MIC,"Neisseria lactamica 7, Consensus",0.032 µg/mL
same,MIC,"Neisseria lactamica 7, Replicate 1",0.032 µg/mL
same,MIC,"Neisseria lactamica 7, Replicate 2",0.032 µg/mL
same,MIC,"Neisseria lactamica 7, Replicate 3",0.064 µg/mL
same,MIC,"Neisseria lactamica 8, Consensus",0.032 µg/mL
same,MIC,"Neisseria lactamica 8, Replicate 1",0.032 µg/mL
same,MIC,"Neisseria lactamica 8, Replicate 2",0.032 µg/mL
same,MIC,"Neisseria lactamica 8, Replicate 3",0.064 µg/mL
same,MIC,"Neisseria lactamica 9, Consensus",0.064 µg/mL
same,MIC,"Neisseria lactamica 9, Replicate 1",0.064 µg/mL
same,MIC,"Neisseria lactamica 9, Replicate 2",0.032 µg/mL
same,MIC,"Neisseria lactamica 9, Replicate 3",0.064 µg/mL
same,MIC,"Neisseria lactamica 10, Consensus",0.032 µg/mL
same,MIC,"Neisseria lactamica 10, Replicate 1",0.032 µg/mL
same,MIC,"Neisseria lactamica 10, Replicate 2",0.016 µg/mL
same,MIC,"Neisseria lactamica 10, Replicate 3",0.032 µg/mL
same,MIC,"Neisseria lactamica 11, Consensus",0.032 µg/mL
same,MIC,"Neisseria lactamica 11, Replicate 1",0.032 µg/mL
same,MIC,"Neisseria lactamica 11, Replicate 2",0.032 µg/mL
same,MIC,"Neisseria lactamica 11, Replicate 3",0.032 µg/mL
same,MIC,"Neisseria macacae 1, Consensus",2 µg/mL
same,MIC,"Neisseria macacae 1, Replicate 1",1 µg/mL
same,MIC,"Neisseria macacae 1, Replicate 2",2 µg/mL
same,MIC,"Neisseria macacae 1, Replicate 3",2 µg/mL
same,MIC,"Neisseria macacae 2, Consensus",2 µg/mL
same,MIC,"Neisseria macacae 2, Replicate 1",2 µg/mL
same,MIC,"Neisseria macacae 2, Replicate 2",2 µg/mL
same,MIC,"Neisseria macacae 2, Replicate 3",2 µg/mL
same,MIC,"Neisseria macacae 3, Consensus",0.25 µg/mL
same,MIC,"Neisseria macacae 3, Replicate 1",0.25 µg/mL
same,MIC,"Neisseria macacae 3, Replicate 2",0.25 µg/mL
same,MIC,"Neisseria macacae 3, Replicate 3",0.5 µg/mL
same,MIC,"Neisseria macacae 4, Consensus",2 µg/mL
same,MIC,"Neisseria macacae 4, Replicate 1",1 µg/mL
same,MIC,"Neisseria macacae 4, Replicate 2",2 µg/mL
same,MIC,"Neisseria macacae 4, Replicate 3",2 µg/mL
same,MIC,"Neisseria macacae 5, Consensus",2 µg/mL
same,MIC,"Neisseria macacae 5, Replicate 1",2 µg/mL
same,MIC,"Neisseria macacae 5, Replicate 2",2 µg/mL
same,MIC,"Neisseria macacae 5, Replicate 3",2 µg/mL
same,MIC,"Neisseria macacae 6, Consensus",0.5 µg/mL
same,MIC,"Neisseria macacae 6, Replicate 1",0.25 µg/mL
same,MIC,"Neisseria macacae 6, Replicate 2",0.5 µg/mL
same,MIC,"Neisseria macacae 6, Replicate 3",0.5 µg/mL
same,MIC,"Neisseria macacae 7, Consensus",0.5 µg/mL
same,MIC,"Neisseria macacae 7, Replicate 1",0.25 µg/mL
same,MIC,"Neisseria macacae 7, Replicate 2",0.5 µg/mL
same,MIC,"Neisseria macacae 7, Replicate 3",0.5 µg/mL
same,MIC,"Neisseria meningitidis gr 29E, Consensus",0.064 µg/mL
same,MIC,"Neisseria meningitidis gr 29E, Replicate 1",0.064 µg/mL
same,MIC,"Neisseria meningitidis gr 29E, Replicate 2",0.032 µg/mL
same,MIC,"Neisseria meningitidis gr 29E, Replicate 3",0.064 µg/mL
same,MIC,"Neisseria meningitidis gr A, Consensus",0.032 µg/mL
same,MIC,"Neisseria meningitidis gr A, Replicate 1",0.032 µg/mL
same,MIC,"Neisseria meningitidis gr A, Replicate 2",0.032 µg/mL
same,MIC,"Neisseria meningitidis gr A, Replicate 3",0.032 µg/mL
same,MIC,"Neisseria meningitidis gr B, Consensus",0.016 µg/mL
same,MIC,"Neisseria meningitidis gr B, Replicate 1",0.016 µg/mL
same,MIC,"Neisseria meningitidis gr B, Replicate 2",0.016 µg/mL
same,MIC,"Neisseria meningitidis gr B, Replicate 3",0.016 µg/mL
same,MIC,"Neisseria meningitidis gr C, Consensus",0.032 µg/mL
same,MIC,"Neisseria meningitidis gr C, Replicate 1",0.032 µg/mL
same,MIC,"Neisseria meningitidis gr C, Replicate 2",0.032 µg/mL
same,MIC,"Neisseria meningitidis gr C, Replicate 3",0.032 µg/mL
same,MIC,"Neisseria meningitidis gr W, Consensus",0.008 µg/mL
same,MIC,"Neisseria meningitidis gr W, Replicate 1",0.008 µg/mL
same,MIC,"Neisseria meningitidis gr W, Replicate 2",0.008 µg/mL
same,MIC,"Neisseria meningitidis gr W, Replicate 3",0.008 µg/mL
same,MIC,"Neisseria meningitidis gr X, Consensus",0.016 µg/mL
same,MIC,"Neisseria meningitidis gr X, Replicate 1",0.016 µg/mL
same,MIC,"Neisseria meningitidis gr X, Replicate 2",0.016 µg/mL
same,MIC,"Neisseria meningitidis gr X, Replicate 3",0.016 µg/mL
same,MIC,"Neisseria meningitidis gr Y, Consensus",0.008 µg/mL
same,MIC,"Neisseria meningitidis gr Y, Replicate 1",0.016 µg/mL
same,MIC,"Neisseria meningitidis gr Y, Replicate 2",0.008 µg/mL
same,MIC,"Neisseria meningitidis gr Y, Replicate 3",0.008 µg/mL
same,MIC,"Neisseria meningitidis gr Z, Consensus",0.016 µg/mL
same,MIC,"Neisseria meningitidis gr Z, Replicate 1",0.032 µg/mL
same,MIC,"Neisseria meningitidis gr Z, Replicate 2",0.016 µg/mL
same,MIC,"Neisseria meningitidis gr Z, Replicate 3",0.016 µg/mL
same,MIC,"Neisseria mucosa 1, Consensus",0.25 µg/mL
same,MIC,"Neisseria mucosa 1, Replicate 1",0.25 µg/mL
same,MIC,"Neisseria mucosa 1, Replicate 2",0.5 µg/mL
same,MIC,"Neisseria mucosa 1, Replicate 3",0.25 µg/mL
same,MIC,"Neisseria mucosa 2, Replicate 1",0.064 µg/mL
same,MIC,"Neisseria mucosa 3, Consensus",0.032 µg/mL
same,MIC,"Neisseria mucosa 3, Replicate 1",0.032 µg/mL
same,MIC,"Neisseria mucosa 3, Replicate 2",0.032 µg/mL
same,MIC,"Neisseria mucosa 3, Replicate 3",0.064 µg/mL
same,MIC,"Neisseria mucosa 4, Consensus",1 µg/mL
